# Experimental data taken from patent US6593454B2, “Methods for identifying inhibitors of methionine aminopeptidases” (Saint Louis University, priority 1999, dated 2003).
# Assays:
# type 2 MAP = type 2 MAP (Homo sapiens, UniProt P50579); assay: Coupled MAP/dipeptidyl peptidase IV assay, release of p-nitroanilide at 405 nm, type 2 MAP inhibition; format: biochemical
# Method: (§1) MAP activity was next determined by monitoring the release of p-nitroanilide in a microtiter format. Purified type 1 MAP or type 2 MAP (0.6 μg) and/or 0.001 unit of dipeptidyl peptidase IV was added in 47 μl of buffer H (10 mM Hepes, pH 7.4, 10% glycerol), containing 0.1 M KCl and 0.1 mM of Co^2+ in wells of a 96-well microtiter plate. After incubating at 37° C. for 5 min, 2 mM of Met-Gly-Pro-p-nitroanilide was added to the mixture to start the reaction. A microtiter plate reader, set at 405 nm to detect released p-nitroanilide, was used to record the progress of the reactions. […] These curves are highly reproducible and linear, with correlation coefficients (r^2)>0.98.
# (§2) After incubating the inhibitor with MAP solutions at 37° C. for 10 min, 2 mM of Met-Gly-Pro-p-nitroanilide was added to start the reaction, and the release of p-nitroanilide was monitored with a microtiter plate reader at 405 nm as described above. The effect of fumigillin on dipeptidyl peptidase IV activity was also tested by using Gly-Pro-p-nitroanilide as the substrate.
# type 1 MAP = type 1 MAP (Saccharomyces cerevisiae, UniProt Q01662); assay: Coupled MAP/dipeptidyl peptidase IV assay, release of p-nitroanilide at 405 nm, type 1 MAP inhibition; format: biochemical, yeast
# type 1 MAP, sequence (Q01662 whole entry): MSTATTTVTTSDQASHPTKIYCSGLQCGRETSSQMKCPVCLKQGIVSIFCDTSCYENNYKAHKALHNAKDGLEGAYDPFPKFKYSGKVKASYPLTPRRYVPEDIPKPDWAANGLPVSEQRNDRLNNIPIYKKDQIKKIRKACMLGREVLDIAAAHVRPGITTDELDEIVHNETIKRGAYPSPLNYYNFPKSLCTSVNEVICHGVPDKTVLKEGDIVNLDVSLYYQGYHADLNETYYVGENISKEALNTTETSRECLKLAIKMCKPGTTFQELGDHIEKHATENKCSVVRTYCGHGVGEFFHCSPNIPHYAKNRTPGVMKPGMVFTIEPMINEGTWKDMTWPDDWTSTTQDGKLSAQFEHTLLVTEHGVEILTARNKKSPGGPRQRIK
# Method: as §1, §2
# dipeptidyl peptidase IV = dipeptidyl peptidase IV (Homo sapiens, UniProt P27487); assay: Dipeptidyl peptidase IV control assay with Gly-Pro-p-nitroanilide as substrate; format: biochemical
# dipeptidyl peptidase IV, sequence (P27487 whole entry, species assumed): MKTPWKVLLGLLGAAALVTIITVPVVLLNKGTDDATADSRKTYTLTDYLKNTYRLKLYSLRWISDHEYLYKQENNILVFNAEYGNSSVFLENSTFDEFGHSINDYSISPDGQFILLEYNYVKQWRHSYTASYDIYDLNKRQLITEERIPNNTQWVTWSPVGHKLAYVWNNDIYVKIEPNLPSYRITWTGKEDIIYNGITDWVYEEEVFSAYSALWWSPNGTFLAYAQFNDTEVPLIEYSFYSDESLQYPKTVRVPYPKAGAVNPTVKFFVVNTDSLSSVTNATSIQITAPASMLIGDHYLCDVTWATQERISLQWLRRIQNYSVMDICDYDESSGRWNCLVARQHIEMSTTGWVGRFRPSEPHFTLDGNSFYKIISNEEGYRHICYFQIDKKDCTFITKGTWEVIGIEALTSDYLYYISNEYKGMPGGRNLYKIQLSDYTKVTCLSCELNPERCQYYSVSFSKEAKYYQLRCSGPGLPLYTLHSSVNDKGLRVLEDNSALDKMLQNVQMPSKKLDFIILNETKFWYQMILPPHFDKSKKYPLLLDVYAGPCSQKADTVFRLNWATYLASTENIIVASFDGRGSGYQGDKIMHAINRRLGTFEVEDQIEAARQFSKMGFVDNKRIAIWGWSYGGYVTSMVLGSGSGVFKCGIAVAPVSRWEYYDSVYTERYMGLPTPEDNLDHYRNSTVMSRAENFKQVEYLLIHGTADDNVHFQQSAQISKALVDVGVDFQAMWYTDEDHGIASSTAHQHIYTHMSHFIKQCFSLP
# Method: as §1, §2
# [1] = FIG. 3 legend, dipeptidyl peptidase IV and Met-Gly-Pro-p-nitroanilide, no concentration stated
# type 2 MAP, sequence (P50579 whole entry): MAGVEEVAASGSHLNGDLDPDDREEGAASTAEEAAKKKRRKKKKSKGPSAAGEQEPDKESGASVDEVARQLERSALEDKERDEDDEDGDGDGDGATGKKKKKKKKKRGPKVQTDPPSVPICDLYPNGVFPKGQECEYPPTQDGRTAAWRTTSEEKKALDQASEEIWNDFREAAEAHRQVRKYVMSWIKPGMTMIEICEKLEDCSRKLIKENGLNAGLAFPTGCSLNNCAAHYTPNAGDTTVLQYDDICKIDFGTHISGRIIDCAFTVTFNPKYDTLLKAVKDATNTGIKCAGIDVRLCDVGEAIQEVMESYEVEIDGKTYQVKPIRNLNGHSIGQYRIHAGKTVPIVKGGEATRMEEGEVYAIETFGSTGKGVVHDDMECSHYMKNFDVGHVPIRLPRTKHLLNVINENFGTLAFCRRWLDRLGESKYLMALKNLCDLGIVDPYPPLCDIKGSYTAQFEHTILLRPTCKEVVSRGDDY
smiles,measurement,setting,value
CO[C@@H]1[C@H](OC(=O)/C=C/C=C/C=C/C=C/C(=O)O)CC[C@]2(CO2)[C@H]1[C@@]1(C)O[C@@H]1CC=C(C)C [fumagillin],type 2 MAP activity,"type 2 MAP; 20 nM inhibitor, 10 min preincubation at 37° C., 2 mM Met-Gly-Pro-p-nitroanilide, FIG. 3",completely inhibited
same,release of p-nitroanilide when type 2 MAP was used,type 2 MAP; [1],strongly inhibited
same,type 1 MAP activity,"type 1 MAP; 50 nM inhibitor, 10 min preincubation at 37° C., 2 mM Met-Gly-Pro-p-nitroanilide, FIG. 3",remained unaffected
same,release of p-nitroanilide when type 1 MAP was used,type 1 MAP; [1],not
same,dipeptidyl peptidase IV activity,"dipeptidyl peptidase IV; 50 nM inhibitor, Gly-Pro-p-nitroanilide as substrate, FIG. 3",remained unaffected
same,release of p-nitroanilide when dipeptidyl peptidase IV was used with Gly-Pro-p-nitroanilide,"dipeptidyl peptidase IV; FIG. 3 legend, no concentration stated",not
